# Measurements taken from ChEMBL document CHEMBL3046502, “In vitro antimicrobial and antitubercular studies of novel 6-substituted (pyrrolidin-1-yl)-2(1H)-pyridinones” (2012).
# Key:
# Format in all cases: functional
# Streptococcus pyogenes = experiment: Antimicrobial activity against Streptococcus pyogenes MTCC 443 by broth microdilution method
# Aspergillus niger = experiment: Antimicrobial activity against Aspergillus niger MTCC 282
# Pseudomonas aeruginosa = experiment: Antimicrobial activity against Pseudomonas aeruginosa MTCC 2488 by broth microdilution method
# Escherichia coli = experiment: Antimicrobial activity against Escherichia coli MTCC 442 by broth microdilution method
# Staphylococcus aureus = experiment: Antimicrobial activity against Staphylococcus aureus MTCC 96 by broth microdilution method
# Aspergillus clavatus = experiment: Antimicrobial activity against Aspergillus clavatus MTCC 1323
# Candida albicans = experiment: Antimicrobial activity against Candida albicans MTCC 227
# [1] = system: Mycobacterium tuberculosis; experiment: Antimicrobial activity against Mycobacterium tuberculosis H37Rv; conditions: for MIC: Mycobacterium tuberculosis, H37Rv
SMILES,MIC (Streptococcus pyogenes) [µg/mL],MIC (Aspergillus niger) [µg/mL],MIC (Pseudomonas aeruginosa) [µg/mL],MIC (Escherichia coli) [µg/mL],MIC (Staphylococcus aureus) [µg/mL],MIC (Aspergillus clavatus) [µg/mL],MIC (Candida albicans) [µg/mL],inhibition (INH) [1] [%],MIC [1] [µg/mL]
COc1ccc(-c2cc(N3CCCC3)n(-c3cccc(Cl)c3)c(=O)c2CN2CCCC2)cc1,500,500,500,250,500,1000,500,,
COc1ccc(-c2cc(N3CCCC3)n(-c3cccc(Cl)c3)c(=O)c2Cn2cncn2)cc1,200,250,100,100,250,500,200,98,500
COc1ccc(-c2cc(=O)n(-c3cccc(Cl)c3)c(N3CCCC3)c2/N=N/c2c(Cl)cc([N+](=O)[O-])c(Cl)c2Cl)cc1,200,1000,250,250,200,1000,250,,
COc1ccc(-c2cc(=O)n(-c3cccc(Cl)c3)c(N3CCCC3)c2/N=N/c2ccc(Cl)cc2[N+](=O)[O-])cc1,250,200,500,250,250,200,250,98,500
COc1ccc(-c2cc(=O)n(-c3cccc(Cl)c3)c(N3CCCC3)c2/N=N/c2ccc([N+](=O)[O-])cc2Cl)cc1,200,500,250,250,200,500,500,,
COc1ccc(-c2cc(=O)n(-c3cccc(Cl)c3)c(N3CCCC3)c2/N=N/c2ccc(Cl)c(Cl)c2)cc1,500,500,200,62.5,200,1000,100,,
COc1ccc(-c2cc(=O)n(-c3cccc(Cl)c3)c(N3CCCC3)c2/N=N/c2cc(Cl)ccc2Cl)cc1,500,> 1000,500,100,500,> 1000,1000,99,100
COc1ccc(-c2cc(=O)n(-c3cccc(Cl)c3)c(N3CCCC3)c2/N=N/c2ccc([N+](=O)[O-])cc2)cc1,250,> 1000,250,250,500,500,500,,
COc1ccc(-c2cc(=O)n(-c3cccc(Cl)c3)c(N3CCCC3)c2/N=N/c2cccc([N+](=O)[O-])c2)cc1,250,500,200,250,250,500,500,,
COc1ccc(-c2cc(=O)n(-c3cccc(Cl)c3)c(N3CCCC3)c2/N=N/c2ccccc2[N+](=O)[O-])cc1,100,500,200,200,100,250,250,,
COc1ccc(-c2cc(=O)n(-c3cccc(Cl)c3)c(N3CCCC3)c2/N=N/c2ccc(C)cc2)cc1,200,250,250,200,200,500,250,,
COc1ccc(-c2cc(=O)n(-c3cccc(Cl)c3)c(N3CCCC3)c2/N=N/c2cccc(C)c2)cc1,200,500,250,250,250,500,500,,
COc1ccc(-c2cc(=O)n(-c3cccc(Cl)c3)c(N3CCCC3)c2/N=N/c2ccccc2C)cc1,500,1000,500,200,500,1000,250,,
COc1ccc(-c2cc(=O)n(-c3cccc(Cl)c3)c(N3CCCC3)c2/N=N/c2ccc(Cl)cc2)cc1,500,500,500,100,500,500,100,,
COc1ccc(-c2cc(=O)n(-c3cccc(Cl)c3)c(N3CCCC3)c2/N=N/c2cccc(Cl)c2)cc1,100,500,500,500,100,500,250,,
COc1ccc(-c2cc(=O)n(-c3cccc(Cl)c3)c(N3CCCC3)c2/N=N/c2ccccc2Cl)cc1,250,500,100,250,250,250,250,,
COc1ccc(-c2cc(=O)n(-c3cccc(Cl)c3)c(N3CCCC3)c2/N=N/c2ccccc2)cc1,250,250,500,250,250,500,500,,
COc1ccc(-c2cc(N3CCCC3)n(-c3cccc(Cl)c3)c(=O)c2/N=N/c2c(Cl)cc([N+](=O)[O-])cc2Cl)cc1,200,1000,250,250,200,1000,250,,
